Sander's compilation of Henry's law constants (doi:10.1063/1.555654)

Experiment: Henry solubility constant Hcp at 298.15 K (mol/(m3 Pa))
Conditions: reference: Mackay and Shiu (1981)

Compound	Henry solubility constant Hcp
Clc1cc(Cl)c(Cl)c(Cl)c1 [1,2,3,5-tetrachlorobenzene]	0.0063
Clc1cccc(Cl)c1Cl [1,2,3-trichlorobenzene]	0.0079
Clc1ccc(Cl)cc1 [1,4-dichlorobenzene]	0.0042
Clc1cccc2ccccc12 [1-chloronaphthalene]	0.0028
Cc1cccc2ccccc12 [1-methylnaphthalene]	0.038
c1ccc2c(c1)Cc1ccccc1-2 [2,3-benzindene]	0.099
Clc1ccc2ccccc2c1 [2-chloronaphthalene]	0.031
c1cc2c3c(cccc3c1)CC2 [acenaphthene]	0.0064
c1ccc2cc3ccccc3cc2c1 [anthracene]	0.014
c1ccc(-c2ccccc2)cc1 [biphenyl]	0.033
Brc1ccccc1 [bromobenzene]	0.004
Clc1ccccc1 [chlorobenzene]	0.0032
c1ccc2c(c1)ccc1ccccc12 [phenanthrene]	0.27
